Reference: patent US9206128B2 (Constellation Pharmaceuticals, Inc., priority 2011, dated 2015)

What was measured:
EZH2 = EZH2 (Homo sapiens, UniProt Q15910); assay: EZH2 activity inhibition assay (rPRC2, 3H SAM, biotinylated oligonucleosomes, FlashPlate); type: biochemical; conditions: rPRC2, 2 nM EZH2, 0.2 μM 3H SAM, top concentration 80 μM
Procedure: (§1) EZH2 Assay: Assays were carried out by mixing rPRC2 together with biotinylated oligonucleosome substrates in the presence of the radio-labeled enzyme co-factor, S-adenosyl-L-methionine (^3H SAM) (Perkin Elmer) and monitoring the enzymatically mediated transfer of tritiated methyl groups from ^3H SAM to histone lysine residues. The amount of resulting tritiated methyl histone product was measured by first capturing the biotinylated oligonucleosomes in streptavidin (SAV) coated FlashPlates (Perkin Elmer), followed by a wash step to remove un-reacted ^3H SAM, and then counting on a TopCount NXT 384 well plate scintillation counter (Perkin Elmer).
A 12.5 μL volume of the HMT enzyme, H3K27me3 peptide and oligonucleosome substrate in assay buffer was added to each well of the assay plate using a Multidrop Combi (ThermoFisher). Compounds were pre-incubated with the enzyme for 20 min, followed by initiation of the methyltransferase reaction by addition of 12.5 μL of 3H SAM in assay buffer (final volume=25 μL). […] Stopped reactions were transferred to SAV coated Flashplates (Perkin Elmer), incubated for 120 min, washed with a plate washer, and then read on the TopCount NXT (1.0 min/well) to measure the amount of methyl histone product formed during the reaction.

Y641N EZH2 = Y641N EZH2 (Homo sapiens, UniProt Q15910, Y641N); assay: Y641N EZH2 activity inhibition assay (as EZH2 assay, reconstituted H3K27Me2 oligonucleosomes as substrate); type: biochemical; conditions: Y641N EZH2 mutant enzyme
Y641N EZH2, sequence (Q15910 whole entry Y641N): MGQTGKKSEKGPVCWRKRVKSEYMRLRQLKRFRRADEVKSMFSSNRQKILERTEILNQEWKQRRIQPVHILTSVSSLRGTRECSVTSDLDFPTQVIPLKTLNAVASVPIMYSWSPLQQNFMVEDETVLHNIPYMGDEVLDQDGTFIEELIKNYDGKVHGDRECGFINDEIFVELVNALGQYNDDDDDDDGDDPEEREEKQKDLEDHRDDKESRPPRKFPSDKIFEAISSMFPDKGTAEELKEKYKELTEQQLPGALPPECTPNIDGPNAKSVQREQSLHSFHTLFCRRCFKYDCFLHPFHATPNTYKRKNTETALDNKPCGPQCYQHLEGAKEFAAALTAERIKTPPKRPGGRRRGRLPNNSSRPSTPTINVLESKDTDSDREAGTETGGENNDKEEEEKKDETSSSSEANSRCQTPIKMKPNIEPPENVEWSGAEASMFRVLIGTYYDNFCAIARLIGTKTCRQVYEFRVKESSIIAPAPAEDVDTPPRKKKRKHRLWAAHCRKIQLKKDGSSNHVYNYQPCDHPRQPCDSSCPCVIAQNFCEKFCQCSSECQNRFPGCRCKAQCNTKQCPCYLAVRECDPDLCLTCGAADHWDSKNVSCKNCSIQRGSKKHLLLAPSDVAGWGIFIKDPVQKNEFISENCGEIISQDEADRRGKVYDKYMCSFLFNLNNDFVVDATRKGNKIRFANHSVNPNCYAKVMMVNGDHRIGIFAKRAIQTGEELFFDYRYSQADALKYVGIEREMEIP
Y641N EZH2, sequence (O75530 whole entry partner): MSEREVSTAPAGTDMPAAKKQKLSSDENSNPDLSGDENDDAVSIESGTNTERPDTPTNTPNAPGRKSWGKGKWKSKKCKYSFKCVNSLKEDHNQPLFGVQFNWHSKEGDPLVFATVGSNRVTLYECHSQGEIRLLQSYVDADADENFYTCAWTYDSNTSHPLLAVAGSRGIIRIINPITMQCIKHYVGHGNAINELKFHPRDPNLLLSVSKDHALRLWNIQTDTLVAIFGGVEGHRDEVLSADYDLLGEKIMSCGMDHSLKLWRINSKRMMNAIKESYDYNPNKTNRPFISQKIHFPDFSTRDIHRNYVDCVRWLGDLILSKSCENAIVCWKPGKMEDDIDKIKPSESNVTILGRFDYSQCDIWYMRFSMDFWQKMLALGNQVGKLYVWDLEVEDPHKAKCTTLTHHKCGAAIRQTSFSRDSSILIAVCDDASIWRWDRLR
Y641N EZH2, sequence (Q15022 whole entry partner): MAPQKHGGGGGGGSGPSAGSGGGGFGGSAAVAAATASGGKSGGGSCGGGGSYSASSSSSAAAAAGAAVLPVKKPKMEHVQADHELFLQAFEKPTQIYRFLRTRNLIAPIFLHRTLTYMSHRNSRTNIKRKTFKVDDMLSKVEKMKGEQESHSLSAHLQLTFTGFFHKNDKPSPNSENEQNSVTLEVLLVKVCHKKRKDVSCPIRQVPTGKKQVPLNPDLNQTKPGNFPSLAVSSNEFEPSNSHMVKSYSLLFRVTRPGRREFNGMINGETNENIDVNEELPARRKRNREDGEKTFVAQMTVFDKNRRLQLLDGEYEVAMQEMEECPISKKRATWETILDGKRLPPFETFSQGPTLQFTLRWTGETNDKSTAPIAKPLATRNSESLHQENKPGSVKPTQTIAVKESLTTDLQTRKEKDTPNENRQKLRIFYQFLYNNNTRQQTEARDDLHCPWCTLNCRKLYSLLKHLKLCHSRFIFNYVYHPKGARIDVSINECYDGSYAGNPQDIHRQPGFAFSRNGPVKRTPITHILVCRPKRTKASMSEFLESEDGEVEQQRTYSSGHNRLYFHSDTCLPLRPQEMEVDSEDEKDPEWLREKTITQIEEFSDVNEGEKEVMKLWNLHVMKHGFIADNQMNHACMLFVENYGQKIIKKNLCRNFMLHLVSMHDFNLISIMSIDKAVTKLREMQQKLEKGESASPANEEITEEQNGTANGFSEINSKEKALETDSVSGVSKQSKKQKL
Procedure: as §1, with “Elmer). The final assay conditions for EZH2 were as follows: 50 mM Tris Buffer pH 8.5, 1 mM DTT, 69 μM Brij-35 detergent, 5.0 mM MgCl2, 0.1 mg/mL BSA, 0.2 μM ^3H SAM, 0.2 μM biotinylated oligonucleosomes, 3.6 μM H3K27me3 peptide and 2 nM EZH2.” for “Elmer).”
A 12.5 μL volume of the HMT enzyme, H3K27me3 peptide and oligonucleosome substrate in assay buffer was added to each well of the assay plate using a Multidrop Combi (ThermoFisher). Compounds were pre-incubated with the enzyme for 20 min, followed by initiation of the methyltransferase reaction by addition of 12.5 μL of 3H SAM in assay buffer (final volume=25 μL). The final concentrations of compounds ranged from a top default concentration of 80 μM down to 0.16 μM in ten 2-fold dilution steps. Reactions were carried out for 60 minutes and quenched with 20 μL per well of 1.96 mM SAH, 50 mM Tris PH 8.5, 200 mM EDTA. Stopped reactions were transferred to SAV coated Flashplates (Perkin Elmer), incubated for 120 min, washed with a plate washer, and then read on the TopCount NXT (1.0 min/well) to measure the amount of methyl histone product formed during the reaction.

EZH2, sequence (Q15910 whole entry): as the sequence (Q15910 whole entry Y641N) above, with N641Y counted along it
EZH2, sequence (O75530 whole entry partner): as the sequence (O75530 whole entry partner) above
EZH2, sequence (Q15022 whole entry partner): as the sequence (Q15022 whole entry partner) above

Row | SMILES | IC50 (EZH2) [µM] | IC50 (Y641N EZH2) [µM]
1 | Cc1cc(C)c(CNC(=O)c2ccc(C(C)Oc3ccccc3)c(F)c2)c(=O)[nH]1 (single isomer, unassigned) [Compound I-160, (R)— or (S)-3-fluoro-N-((2-hydroxy-4,6-dimethylpyridin-3-yl)methyl)-4-(1-phenoxyethyl)benzamide] | > 80 | > 80
2 | Cc1cc(C)c(CNC(=O)c2ccc(C(C)Oc3ccccc3)c(F)c2)c(=O)[nH]1 (single isomer, unassigned) [Compound I-161, (S)— or (R)-3-fluoro-N-((2-hydroxy-4,6-dimethylpyridin-3-yl)methyl)-4-(1-phenoxyethyl)benzamide] | < 1 | < 1
3 | Cc1cc(C)c(CNC(=O)c2ccc(C(C)Oc3ccccc3)cc2)c(=O)[nH]1 (stereo in doubt) [Compound I-30, (S)—N-((2-hydroxy-4,6-dimethylpyridin-3-yl)methyl)-4-(1-phenoxyethyl)benzamide] | 10 to 50 | > 80
4 | Cc1cc(C)c(CNC(=O)c2ccc(Oc3ccccc3C#N)cc2)c(=O)[nH]1 [Compound I-2, 4-(2-cyanophenoxy)-N-((2-hydroxy-4,6-dimethylpyridin-3-yl)methyl)benzamide] | 1 to 10 | 10 to 50
5 | Cc1cc(C)c(CNC(=O)c2ccc(COc3cccc(-c4ccc(N)nc4)c3)cc2)c(=O)[nH]1 [Compound I-3, 4-((3-(6-aminopyridin-3-yl)phenoxy)methyl)-N-((2-hydroxy-4,6-dimethylpyridin-3-yl)methyl)benzamide] | < 1 | 1 to 10
6 | CCc1cccc(Oc2ccc(C(=O)NCc3c(C)cc(C)[nH]c3=O)cc2C)c1C#N [Compound I-4, 4-(2-cyano-3-ethylphenoxy)-N-((2-hydroxy-4,6-dimethylpyridin-3-yl)methyl)-3-methylbenzamide] | 1 to 10 | –
7 | Cc1cc(C)c(CNC(=O)c2ccc(Oc3cccc(-c4cn[nH]c4)c3C#N)c(Cl)c2)c(=O)[nH]1 [Compound I-5, 3-chloro-4-(2-cyano-3-(1H-pyrazol-4-yl)phenoxy)-N-((2-hydroxy-4,6-dimethylpyridin-3-yl)methyl)benzamide] | 1 to 10 | –
8 | Cc1cc(C)c(CNC(=O)c2ccc(Oc3cccc(-c4ccncc4)c3C#N)c(Cl)c2)c(=O)[nH]1 [Compound I-6, 3-chloro-4-(2-cyano-3-(pyridin-4-yl)phenoxy)-N-((2-hydroxy-4,6-dimethylpyridin-3-yl)methyl)benzamide] | 1 to 10 | –
9 | Cc1cc(C)c(CNC(=O)c2ccc(Oc3ccccc3-c3ccncc3)c(Cl)c2)c(=O)[nH]1 [Compound I-7, 3-chloro-N-((2-hydroxy-4,6-dimethylpyridin-3-yl)methyl)-4-(2-(pyridin-4-yl)phenoxy)benzamide] | 1 to 10 | –
10 | Cc1cc(C)c(CNC(=O)c2ccc(Oc3ccccc3C#N)c(Cl)c2)c(=O)[nH]1 [Compound I-10, 3-chloro-4-(2-cyanophenoxy)-N-((2-hydroxy-4,6-dimethylpyridin-3-yl)methyl)benzamide] | 1 to 10 | 1 to 10
11 | Cc1cc(C)c(CNC(=O)c2ccc(COc3ccccc3)cc2)c(=O)[nH]1 [Compound I-11, N-((2-hydroxy-4,6-dimethylpyridin-3-yl)methyl)-4-(phenoxymethyl)benzamide] | 1 to 10 | 1 to 10
12 | Cc1cc(C)c(CNC(=O)c2ccc(OCc3ccccc3)cc2)c(=O)[nH]1 [Compound I-12, 4-(benzyloxy)-N-((2-hydroxy-4,6-dimethylpyridin-3-yl)methyl)benzamide] | 1 to 10 | 10 to 50
13 | Cc1cc(C)c(CNC(=O)c2ccc(N(C)c3ccccc3)cc2)c(=O)[nH]1 [Compound I-13] | < 1 | 1 to 10
14 | Cc1cc(C)c(CNC(=O)c2ccc(Oc3ncccn3)cc2)c(=O)[nH]1 [Compound I-14] | > 50 | > 80
15 | COc1ccnc(Oc2ccc(C(=O)NCc3c(C)cc(C)[nH]c3=O)cc2)n1 [Compound I-15] | > 50 | > 80
16 | Cc1cc(C)c(CNC(=O)c2ccc(Oc3ccccc3)nc2)c(=O)[nH]1 [Compound I-16] | 1 to 10 | 10 to 50
17 | Cc1cc(C)c(CN(C)C(=O)c2ccc(Oc3cccc(-c4ccncn4)c3C#N)c(Cl)c2)c(O)n1 [Compound I-17, 3-chloro-4-(2-cyano-3-(pyrimidin-4-yl)phenoxy)-N-((2-hydroxy-4,6-dimethylpyridin-3-yl)methyl)-N-methylbenzamide] | 1 to 10 | > 50
18 | Cc1cc(C)c(CNC(=O)c2ccc(Nc3ccccc3)nc2)c(=O)[nH]1 [Compound I-18] | 10 to 50 | > 80
19 | Cc1cc(C)c(CNC(=O)c2ccc(Nc3ccccc3)cc2)c(=O)[nH]1 [Compound I-19] | 1 to 10 | 10 to 50
20 | Cc1cc(C)c(CN(C)C(=O)c2ccc(Oc3ccccc3)cc2)c(O)n1 [Compound I-20, N-((2-hydroxy-4,6-dimethylpyridin-3-yl)methyl)-N-methyl-4-phenoxybenzamide] | 1 to 10 | > 50
21 | Cc1cc(C)c(CNC(=O)c2ccc(Oc3ccccc3)cn2)c(=O)[nH]1 [Compound I-21, N-((2-hydroxy-4,6-dimethylpyridin-3-yl)methyl)-5-phenoxypicolinamide] | 1 to 10 | 10 to 50
22 | Cc1cc(C)c(CNC(=O)c2ccc(Oc3ccccc3)cc2Cl)c(=O)[nH]1 [Compound I-22] | < 1 | 1 to 10
23 | Cc1cc(C)c(CNC(=O)c2ccc(C(C)Oc3ccccc3)cc2)c(=O)[nH]1 (centres unmarked) [Compound I-23, N-((2-hydroxy-4,6-dimethylpyridin-3-yl)methyl)-4-(1-phenoxyethyl)benzamide] | < 1 | < 1
24 | Cc1cc(C)c(CNC(=O)c2ccc(C(O)c3ccccc3)cc2)c(=O)[nH]1 (centres unmarked) [Compound I-24] | 10 to 50 | > 50
25 | Cc1cc(C)c(CNC(=O)c2ccc(C(C)(O)c3ccccc3)cc2)c(=O)[nH]1 (centres unmarked) [Compound I-25] | 1 to 10 | 10 to 50
26 | Cc1cc(C)c(CNC(=O)c2ccc(S(=O)(=O)c3ccccc3)cc2)c(=O)[nH]1 [Compound I-26, N-((2-hydroxy-4,6-dimethylpyridin-3-yl)methyl)-4-(phenylsulfonyl)benzamide] | 10 to 50 | > 80
27 | Cc1cc(C)c(CNC(=O)c2ccc(COc3ccccc3)cc2C)c(=O)[nH]1 [Compound I-27, N-((2-hydroxy-4,6-dimethylpyridin-3-yl)methyl)-2-methyl-4-(phenoxymethyl)benzamide] | < 1 | 1 to 10
28 | Cc1cc(C)c(CNC(=O)c2ccc(Oc3ccccc3)cc2C)c(=O)[nH]1 [Compound I-28, N-((2-hydroxy-4,6-dimethylpyridin-3-yl)methyl)-2-methyl-4-phenoxybenzamide] | 1 to 10 | 10 to 50
29 | Cc1cc(C)c(CNC(=O)c2ccc([S+]([O-])c3ccccc3)cc2)c(=O)[nH]1 (centres unmarked) [Compound I-29, N-((2-hydroxy-4,6-dimethylpyridin-3-yl)methyl)-4-(phenylsulfinyl)benzamide] | 10 to 50 | > 80
30 | Cc1cc(C)c(CNC(=O)c2ccc([C@H](C)Oc3ccccc3)cc2)c(O)n1 [Compound I-31, (S)—N-((2-hydroxy-4,6-dimethylpyridin-3-yl)methyl)-4-(1-phenoxyethyl)benzamide] | < 1 | < 1
